The term IC50 denotes the concentration at which inhibition is half-maximal.

Structures are written as SMILES.

The assay addresses T1, 6-phosphofructo-2-kinase/fructose-2,6-bisphosphatase-3 (PFKFB3) (Homo sapiens, UniProt Q16875).
T1 construct: Recombinant full length human PFKFB3 protein purified from Sf9 baculoviral system
The experiment in a line: ADP-Glo kinase assay with recombinant PFKFB3 (ATP + F6P). Type of assay: biochemical.

T1 sequence (Q16875 whole entry): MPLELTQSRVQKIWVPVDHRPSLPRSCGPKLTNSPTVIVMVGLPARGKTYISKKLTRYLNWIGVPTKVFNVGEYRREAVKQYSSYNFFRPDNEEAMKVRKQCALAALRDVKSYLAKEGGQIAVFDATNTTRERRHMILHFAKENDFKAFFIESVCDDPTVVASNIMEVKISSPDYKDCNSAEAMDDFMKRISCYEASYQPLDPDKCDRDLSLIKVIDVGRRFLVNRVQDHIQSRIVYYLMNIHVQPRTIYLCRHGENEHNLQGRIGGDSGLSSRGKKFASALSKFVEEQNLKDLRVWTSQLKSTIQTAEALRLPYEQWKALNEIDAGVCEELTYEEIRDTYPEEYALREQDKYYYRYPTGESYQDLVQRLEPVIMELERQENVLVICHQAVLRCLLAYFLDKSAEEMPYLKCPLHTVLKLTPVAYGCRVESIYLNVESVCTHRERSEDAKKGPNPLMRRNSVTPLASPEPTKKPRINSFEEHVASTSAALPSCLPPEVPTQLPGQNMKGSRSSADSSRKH

In the case of `Cc1noc(C)c1Cn1cc(C#N)c2cc(Oc3ccc(NC(=O)[C@@H]4CCCN4)cc3)ccc21` [AZ67], the IC50 was 18 nM.

Values taken from publication PMC6691133, “Targeting PFKFB3 alleviates cerebral ischemia-reperfusion injury in mice” (Scientific Reports, 2019).
